Reference: publication PMC5038265 (Antimicrobial Agents and Chemotherapy, 2016)
In brackets after ≈: the same amount, converted by molar mass. Where two headings read alike, the source gives them in different places.

How the values were obtained:
[1] = system: M. tuberculosis H37Rv; experiment: MIC for M. tuberculosis H37Rv (resazurin/alamarBlue); format: cell-based, Mycobacterium tuberculosis; conditions: for MIC: Mycobacterium tuberculosis, H37RV, read-out: MIC M.tb H37Rv
[2] = system: M. tuberculosis H37Rv; experiment: microbe, parasite or virus in culture; format: cell-based; conditions: Mycobacterium tuberculosis, read-out: MIC on Middlebrook 7H10 agar
[3] = biological target: M. tuberculosis LeuRS (Mycobacterium tuberculosis, UniProt P9WFV1); experiment: biochemical; set-up: species or system M. tuberculosis H37Rv
[4] = system: Vero cells; experiment: In vitro cytotoxicity assay (MTT); format: cell-based, African green monkey; conditions: Chlorocebus sabaeus, 72 h
Protocol: Vero epithelial cells (from African green monkey; ATCC CCL-81) were cultured in Dulbecco's modified Eagle's medium (DMEM) supplemented with 10% fetal bovine serum (FBS) and maintained in a humidified incubator (37°C in 5% CO2). Cells were dislodged with a cell scraper, collected by centrifugation, resuspended in fresh medium at ∼10^6 cells/ml, dispensed into 96-well microtiter plates ([…]), and incubated for 18 h at 37°C. Twofold serial dilutions of test compounds in DMEM with FBS were subsequently added, and cells were incubated for another 72 h. In triplicate studies, the cytopathic effects of compounds were evaluated colorimetrically by using the 3-(4,5-dimethyl-2-thiazolyl)-2,5-diphenyl-2H-tetrazolium bromide (MTT) cell proliferation assay (ATCC). IC50 data were obtained from dose-response curves plotted by using GraphPad Prism 5.

[5] = biological target: M. tuberculosis LeuRS editing domain (Mycobacterium tuberculosis, UniProt P9WFV1); experiment: biochemical; format: binding
[6] = in vivo; conditions: for α-t1/2 % AUC / β-t1/2 % AUC: i.v.; for AUC(0-inf) / Cmax / MRT / Vd / clearance / half-life / AUC(0-t) / Tmax / bioavailability: in vivo
Protocol: Mouse pharmacokinetic studies were conducted by using female CD-1 mice for compounds 1, 11, and 12, while BALB/c mice were used for compound 13. Mouse body weights were 19 to 28 g, and on the morning of dosing, mice were split randomly into 3 dosing groups to receive the test article by either intravenous (i.v.) tail vein injection or oral (p.o.) gavage. After dosing, blood samples were collected via cardiac puncture at specific time points (n = 3 mice/time point) through 24 h (K2EDTA as an anticoagulant) and processed for plasma. Antibiotic concentrations in the plasma samples were analyzed by liquid chromatography-tandem mass spectrometry (LC-MS/MS). The LC-MS/MS analysis was conducted by using analyte/internal standard peak area methods. The internal standard was AN3365 ([21]), and the instrument used was an API4000 QTRAP instrument (AB Sciex). The limit of quantitation (LOQ) was 1 or 2 ng/ml. Pharmacokinetic analyses of the mean plasma concentration-time profiles were performed by using WinNonlin Pro version 5.2. A compartmental model was used for the data for i.v. dosing, and a noncompartmental model was used for the data for p.o. dosing. […] Compounds 1 and 13 were formulated in saline (0.9% [wt/vol] NaCl) at 7.5 mg/ml, and the pH was adjusted to >5 by the addition of NaOH. Compound 11 was formulated to 6.5 mg/ml in water-dimethylacetamide-ethanol (EtOH) (76:19:5), and the pH was adjusted to >5 by the addition of NaOH. Compound 12 was formulated to 7.5 mg/ml in PEG 300-propylene glycol (PG)-water (55:25:20), and the pH was adjusted to >5 by the addition of NaOH.

[7] = in vitro; format: in vitro ADME; conditions: mouse plasma, 1 and 10 µg/ml, ultrafiltration; read-out: Mouse PPB (converted)
Protocol: Compounds were added to 1.5-ml aliquots of mouse plasma at concentrations of 1 and 10 µg/ml and then incubated in a shaking water bath at 37°C for 15 min. Both samples were treated similarly, and a 0.5-ml aliquot was removed from each tube and added to the filter reservoir of Microcon centrifugal filter devices (Ultracel YM-30 with a molecular mass cutoff of 30 kDa). The devices were centrifuged at 1,000 × g for 10 min, and 100 μl of the filtrate was transferred to a 96-well plate and diluted 5-fold. Ten-microliter volumes of the samples were injected and analyzed with the LC-MS/MS system. All samples were analyzed in duplicate. Quantitation was based on the peak area ratio of the analyte over the internal standard, and all integrations were performed with peak areas by using Analyst version 1.4.1 (Applied Biosystems, Foster City, CA, USA). Plasma protein binding was calculated based on the following equation: Plasma Protein Binding (%)=(PeakAreaPlasma UltrafilrateSpiked−PeakAreaPlasmaFiltrate)/PeakAreaPlasma UltrafiltrateSpiked×100

[8] = system: M. smegmatis ATCC 700084 and leuS resistant mutants; experiment: Liquid culture MIC for compound 1-resistant M. smegmatis mutants; format: cell-based, Mycobacterium smegmatis; conditions: Mycolicibacterium smegmatis
Source text: Mutants resistant to compound 1 were isolated on Middlebrook 7H10 medium plus 10% (vol/vol) oleic albumin dextrose catalase (OADC) supplement (Becton Dickinson) containing compound 1 at 4× MIC. Resistance was confirmed by measuring the mutant MIC values essentially as described previously by Collins and Franzblau ([17]).

[9] = mouse, po, 30 mg/kg, Terminal t1/2, mouse
[10] = female, CD-1, mouse, iv, 15 mg/kg

M. tuberculosis LeuRS editing domain, sequence (P9WFV1 309-513): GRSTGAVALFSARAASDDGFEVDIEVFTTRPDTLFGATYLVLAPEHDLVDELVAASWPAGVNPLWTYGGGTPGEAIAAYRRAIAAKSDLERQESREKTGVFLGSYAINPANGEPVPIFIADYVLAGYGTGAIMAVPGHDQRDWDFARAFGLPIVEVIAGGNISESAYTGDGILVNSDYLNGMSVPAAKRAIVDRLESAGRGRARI
M. tuberculosis LeuRS, sequence (P9WFV1 whole entry): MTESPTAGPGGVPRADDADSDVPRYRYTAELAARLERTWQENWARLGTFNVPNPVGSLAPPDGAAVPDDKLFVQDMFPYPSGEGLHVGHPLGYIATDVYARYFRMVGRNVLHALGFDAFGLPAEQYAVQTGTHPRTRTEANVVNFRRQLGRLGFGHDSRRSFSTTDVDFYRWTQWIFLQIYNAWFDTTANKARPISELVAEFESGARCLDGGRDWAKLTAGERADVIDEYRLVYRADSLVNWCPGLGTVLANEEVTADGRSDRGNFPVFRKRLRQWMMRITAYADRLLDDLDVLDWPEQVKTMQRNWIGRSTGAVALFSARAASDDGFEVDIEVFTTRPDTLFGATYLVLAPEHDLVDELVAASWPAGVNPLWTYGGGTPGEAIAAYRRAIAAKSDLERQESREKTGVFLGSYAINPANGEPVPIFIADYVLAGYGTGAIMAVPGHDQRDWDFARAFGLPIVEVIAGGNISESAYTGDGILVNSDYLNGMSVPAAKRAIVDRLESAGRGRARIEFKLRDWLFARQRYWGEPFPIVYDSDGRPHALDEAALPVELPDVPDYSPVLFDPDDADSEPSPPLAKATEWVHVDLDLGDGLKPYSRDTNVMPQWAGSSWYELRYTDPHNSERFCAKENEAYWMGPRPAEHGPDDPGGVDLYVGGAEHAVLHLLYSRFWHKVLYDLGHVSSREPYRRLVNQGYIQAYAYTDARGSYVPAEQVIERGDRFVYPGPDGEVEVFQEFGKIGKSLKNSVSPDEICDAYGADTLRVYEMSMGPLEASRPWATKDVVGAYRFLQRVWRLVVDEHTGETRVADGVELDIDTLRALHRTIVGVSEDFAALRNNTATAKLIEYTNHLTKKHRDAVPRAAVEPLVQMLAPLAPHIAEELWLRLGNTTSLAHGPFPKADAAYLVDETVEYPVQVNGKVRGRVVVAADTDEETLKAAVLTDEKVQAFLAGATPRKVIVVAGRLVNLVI

## COc1c(N2C[C@@H]3CCCN[C@@H]3C2)c(F)cc2c(=O)c(C(=O)O)cn(C3CC3)c12 [Moxifloxacin, moxifloxacin, reference compound]
[1]; M. tuberculosis H37Rv, Fig. 6
  MIC values used in kill kinetics experiment: 0.06 mg/L (≈ 0.149 µM)
[2]
  MIC: 0.08 mg/L (≈ 0.199 µM)

## CCOc1cccc2c1B(O)O[C@@H]2CN [Compound 2]
[3]; read-out: IC50 M.tb LeuRS
  IC50: 0.13 µM
[1]
  MIC: 0.13 mg/L (≈ 0.628 µM)
[4]
  EC50: > 50 µM
[5]; ITC, 25°C, with AMP
  No. of sites: 1.05
  ΔGap: -31 kJ/mol
  ΔHap: -4.6 kJ/mol
  −TΔSap: -26.4 kJ/mol
[5]; ITC, 25°C, with AMP, read-out: Kd
  Kd: 3.7 µM
[6]; mouse, 30 mg/kg
  α-t1/2 % AUC: 5 % AUC
  β-t1/2 % AUC: 95 % AUC
[6]; mouse, iv, 30 mg/kg
  AUC(0-inf): 13.8 µg·h/mL
  Cmax: 8.9 µg/mL
  MRT: 2.1 h
  Vd: 2.12 L/kg
  clearance: 2.18 L/h/kg
[6]; mouse, iv, 30 mg/kg, α-t1/2, mouse
  half-life: 0.06 h
[6]; mouse, iv, 30 mg/kg, β-t1/2, mouse
  half-life: 1.5 h
[6]; mouse, po, 30 mg/kg
  AUC(0-t): 13.2 µg·h/mL
  Cmax: 3.4 µg/mL
  Tmax: 0.5 h
  bioavailability: 96%
[6]; [9]
  half-life: 1.8 h
[7]
  fraction unbound: 0.94

## CCOc1ccc(Br)c2c1B(O)OC2CN (stereo not drawn) [Compound 11]
[3]
  IC50: 0.11 µM
[1]; M. tuberculosis H37Rv
  improvement of MIC values over compound 1: more than 5 fold
[1]
  MIC: 0.05 mg/L (≈ 0.175 µM)
[4]
  EC50: > 50 µM
[5]
  Kd: 0.04 µM
  No. of sites: 1.02
  ΔGap: -41.8 kJ/mol
  ΔHap: -23 kJ/mol
  −TΔSap: -19.2 kJ/mol
[6]; [10]
  AUC(0-inf): 45.8 µg·h/mL
  Cmax: 18 µg/mL
  MRT: 3 h
  Vd: 0.968 L/kg
  clearance: 0.328 L/h/kg
[6]; female, CD-1, mouse, iv, 15 mg/kg, α-t1/2, mouse
  half-life: 0.09 h
[6]; female, CD-1, mouse, iv, 15 mg/kg, β-t1/2, mouse
  half-life: 2.08 h
[6]; mouse, 15 mg/kg
  α-t1/2 % AUC: 2 % AUC
  β-t1/2 % AUC: 98 % AUC
[6]; mouse, po, 30 mg/kg
  AUC(0-t): 35.9 µg·h/mL
  Cmax: 7.2 µg/mL
  Tmax: 1 h
  bioavailability: 39%
[6]; [9]
  half-life: 2.7 h
[7]
  fraction unbound: 0.5

## CCOc1cccc2c1B(O)OC2CN (stereo not drawn) [Compound 1]
[3]; read-out: IC50 M.tb LeuRS
  IC50: 0.28 µM
[1]
  MIC: 0.26 mg/L (≈ 1.26 µM)
[4]
  EC50: > 50 µM
[8]; ATCC700084, M. smegmatis ATCC 700084, liquid culture
  MIC: 1 mg/L (≈ 4.83 µM)
[8]; ATCC700084, M. smegmatis RM1 leuS Δ421–462, liquid culture
  MIC: > 256 mg/L
[6]; CD-1, mouse, po, 30 mg/kg
  AUC(0-t): 15 µg·h/mL
  Cmax: 4.33 µg/mL
  bioavailability: 55%
